Here are results for five molecules from paper PMC9861858, “Stereoselective Synthesis and Antiproliferative Activities of Tetrafunctional Diterpene Steviol Derivatives” (International Journal of Molecular Sciences, 2023).

“Also recorded” adds a separate entry of the source.

Experiment [1] relates to A2780 cells. The experiment in a line: MTT antiproliferative assay, A2780. The note with it: for inhibition at 10 µM / inhibition at 30 µM: Homo sapiens, 72 h, values <20% considered negligible, read-out: Growth inhibition (%) ± SEM, A2780; for inhibition at 10 µM: A2780, 10 μM; for inhibition at 30 µM: A2780, 30 μM. It counts as cell-based, human. Summed up: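 Absorbance at 545 nm of DMSO-solubilised formazan, formed during a 4 h MTT incubation, gave growth inhibition after 72 h compound treatment at two concentrations, 10 and 30 μM. Seeding was 5000 cells per well with overnight attachment; medium was EMEM plus 10% fetal bovine serum.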
For orientation: Tetrazolium dyes change colour on reduction, which living cells bring about.

Experiment [2] relates to human cancer cell lines (HeLa, SiHa, A2780, MCF-7 and MDA-MB-231). The experiment in a line: MTT antiproliferative assay, whole cancer cell panel. It is filed as cell-based. The note with it: 10 and 30 μM. On the procedure:
The in vitro antiproliferative activities of the synthesised aminotriols 5–18 against a panel of different human cancer cell lines of gynecological origin, including cervical (SiHA and HeLa), breast (MCF7 and MDA-MB-231), ovary (A2780) cancers and NIH/3T3 healthy fibroblasts, were assayed by the MTT method. Cisplatin, a clinically applied anticancer agent was used as a reference compound, and the results are summarised in Figure 3 and Table S1 in the Supplementary Materials.
The growth-inhibitory effects of the presented terpenes were determined by a standard MTT [3-(4,5-dimethylthiazol2-yl)-2,5-diphenyltetrazolium bromide] assay against […] human cancer cell lines (cervical cancer HeLa and SiHa cell lines, breast cancer MCF-7 and MDA-MB-231 and ovarian cancer A2780). Murine embryonal fibroblast cells (NIH/3T3) were used to determine selectivity. All cell lines were purchased from the European Collection of Cell Cultures (Salisbury, UK). The cells were cultivated in Eagle’s minimal essential medium supplemented with 10% fetal bovine serum, 1% non-essential amino acids, and 1% Antibiotic-Antimycotic complex (penicillin, streptomycin, amphotericin B) at 37 °C in a humidified atmosphere containing 5% CO2. All media and supplements were purchased from Lonza Group Ltd. (Basel, Switzerland). Cancer cells were seeded into 96-well plates (5000 cells/well) after an overnight incubation, and the test compounds were added at two different concentrations (10 μM and 30 μM) and incubated for another 72 h under cell-culturing conditions. Finally, 20 μL of a 5 mg/mL MTT solution was added to each well, and the contents were incubated for a further 4 h. The medium was removed, and the precipitated formazan crystals were dissolved in DMSO by shaking at 37 °C for 60 min. The absorbance was measured at 545 nm by using a microplate reader (SPECTROStar Nano, BMG Labtech, Offenburg, Germany). Clinically utilised anticancer agent cisplatin (Ebewe GmbH, Unterach, Austria) was included as a reference molecule. Calculations were performed using the GraphPad Prism 9 software (GraphPad Software Inc., San Diego, CA, USA).

As usually defined, the inhibition is the relative decrease from the control value, in per cent. Regarding `COC(=O)[C@]1(C)CCC[C@@]2(C)C3CC[C@]4(O)C[C@@]3(CCC21)[C@@H](O)[C@]4(O)CN(C)Cc1ccccc1` (stereo partly drawn) [Compound 6, (4R,6aR,7R,8R,9S,11bS)-Methyl 8-((Benzyl(methyl)amino)methyl)-7,8,9-trihydroxy-4,11b-dimethyltetradecahydro-6a,9-methanocyclohepta[a]naphthalene-4-carboxylate], in experiment [1], the inhibition at 10 µM is 25.7 ± 2.7% and the inhibition at 30 µM amounted to 63.7 ± 1.98%. In addition, in experiment [2], the “Antiproliferative activity on the cancer cell panel, in words” value was “lower bioactivity; also recorded: significant activity in higher concentrations only”.

For the molecule `COC(=O)[C@]1(C)CCC[C@@]2(C)C3CC[C@]4(O)C[C@@]3(CCC21)[C@@H](O)[C@]4(O)CNCc1ccccc1` (stereo partly drawn) [Compound 5, (4R,6aR,7R,8R,9S,11bS)-Methyl 8-((Benzylamino)methyl)-7,8,9-trihydroxy-4,11b-dimethyltetradecahydro-6a,9-methanocyclohepta[a]naphthalene-4-carboxylate], in experiment [1], the inhibition at 10 µM is 30.4 ± 2.48% and the inhibition at 30 µM is 97.15 ± 0.21%. In experiment [2], the “Antiproliferative activity on the cancer cell panel, in words” value is listed as “significant activity in higher concentrations only”.

Consider `CC[C@H](NC[C@@]1(O)[C@H](O)[C@@]23CCC4[C@@](C)(CCC[C@@]4(C)C(=O)OC)C2CC[C@]1(O)C3)c1ccccc1` (stereo partly drawn) [Compound 16, (4R,6aR,7R,8R,9S,11bS)-Methyl 7,8,9-Trihydroxy-4,11b-dimethyl-8-((((S)-1-phenylpropyl)amino)methyl)tetradecahydro-6a,9-methanocyclohepta[a]naphthalene-4-carboxylate], for which, in experiment [1], the inhibition at 10 µM stood at 48.3 ± 2.17% and the inhibition at 30 µM worked out at 96.99 ± 0.19%.

On to `COC(=O)[C@]1(C)CCC[C@@]2(C)C3CC[C@]4(O)C[C@@]3(CCC21)[C@@H](O)[C@]4(O)CNCc1ccc(F)cc1` (stereo partly drawn) [Compound 9, (4R,6aR,7R,8R,9S,11bS)-Methyl 8-(((4-Fluorobenzyl)amino)methyl)-7,8,9-trihydroxy-4,11b-dimethyltetradecahydro-6a,9-methanocyclohepta[a]naphthalene-4-carboxylate], for which, in experiment [1], the inhibition at 10 µM turned out to be 45.6 ± 3.13% and the inhibition at 30 µM came out at 96.97 ± 0.29%.

On to `CC[C@@H](NC[C@@]1(O)[C@H](O)[C@@]23CCC4[C@@](C)(CCC[C@@]4(C)C(=O)OC)C2CC[C@]1(O)C3)c1ccccc1` (stereo partly drawn) [Compound 15, (4R,6aR,7R,8R,9S,11bS)-Methyl 7,8,9-Trihydroxy-4,11b-dimethyl-8-((((R)-1-phenylpropyl)amino)methyl)tetradecahydro-6a,9-methanocyclohepta[a]naphthalene-4-carboxylate], for which the “Antiproliferative effect on A2780, in words” value in experiment [1] (10 and 30 μM) is given as “modest inhibition”. Also, in experiment [1], the inhibition at 10 µM was determined as 50 ± 2.99% and the inhibition at 30 µM came out at 96.64 ± 0.24%.
